{"source": "patent US20070021329A1", "about": "“Treatment of hypersensitivity conditions” (THE University of QUEENSLAND, priority 2002, published 2007)", "key": {"[1]": {"tested_on": "feline asthma", "experiment": "Treatment of asthma in a tiger cub", "assay_type": "in vivo, Bengal Tiger", "conditions": "for response of respiratory clinical signs to bronchodilators: terbutaline 0.3 mg/kg orally, Ventolin puffer 100 μg by inhalation", "protocol": "Respiratory problems were first noticed in Kaasha, a female Bengal Tiger cub at the Dreamworld park, Australia, at the age of 10 weeks and around 10 kg body weight.\nApproximately three weeks after initial clinical signs, the treatment included Clavulox (7 mg/kg administered subcutaneously), doxycycline (5 mg/kg administeredorally), and enrofloxacin (5 mg/kg administered subcutaneously) and terbutaline (0.3 mg/kg administered orally), nebulisation (saline) and percussion, use of Ventolin 100 μg by puffer inhalation and terbutaline (0.3 mg/kg administered orally) as necessary to control dyspnoea. Prednisolone was given as a single daily dose of 2 mg/kg, and Seretide (Salmeterol 50 μg plus fluticasone 250 μg) was given using a mask and spacer. […] This combination of treatment was maintained over the next month.\nConsequently an experimental technique involving direct injection of Prednisolone sodium succinate, 1200 mg in a total volume of 30 ml (40 mg/ml aqueous solution), was instilled into the trachea under general anaesthesia.\nThree weeks after the intra-airway steroid procedure, another experimental therapy was applied. […] (1) were administered at a dose rate of 0.3 mg/kg as single daily subcutaneous injections for six days, followed by twice-weekly injections for 8 weeks. At this time the dose of oral corticosteriod, Prednisolone approx 1 mg/kg reducing, had been reduced to 20 mg per day because of concern regarding side effects of prolonged high dose use."}, "[2]": {"experiment": "Safety observations in dogs treated with PMX53 (haematology, biochemistry, autopsy, injection site)", "conditions": "both dogs; duration of the experiment", "description": "(§2) Blood samples were collected after 4 weeks of treatment. […] Biochemistry and haematology was repeated on the high-dose dog at this time.\n(§3) The second dog was bled for haematology and biochemistry after a total of seven weeks treatment."}, "[3]": {"tested_on": "dermal Arthus reaction", "experiment": "Reverse passive dermal Arthus reaction in the rat: pathology assessment (PMN infiltration score)", "assay_type": "in vivo", "conditions": "intravenous, oral and topical pretreatment, FIG. 3", "protocol": "(§1) The lateral surfaces of the rat were carefully shaved and 5 distinct sites on each lateral surface clearly delineated. A reverse passive Arthus reaction was induced in each dermal site by injecting Evans blue (15 mg kg^−1 i.v.), chicken ovalbumin (20 mg kg^−1 i.v.) into the femoral vein 10 min prior to the injection of antibody. Rabbit anti-chicken ovalbumin (saline only, 100, 200, 300 or 400 μg antibody in a final injection volume of 30 μL) was injected in duplicate at two separate dermal sites on each lateral surface of the rat, giving a total of 10 injection sites per rat. Rats were placed on a heating pad, and anaesthetic was maintained over a 4 h-treatment period with periodic collection of blood samples. […] Additionally, a second set of skin samples were placed in 1 mL of formamide overnight, and the absorbance of Evans blue extraction measured at 650 nm, as an indicator of serum leakage into the dermis. […] Data are shown as absorbance at 650nm as a percentage of the plasma absorbance, as mean values ±SEM (n=3-6). *indicates a P value ≦0.05 when compared to Arthus control values. […]\nRat skin samples were fixed in 10% buffered formalin for at least 10 days, and stained with haematoxylin and eosin using standard histological techniques. Dermal samples were analysed in a blind fashion for evidence of pathology, and the degree of rat PMN infiltration was scored on a scale of 0-4. […]"}, "[4]": {"tested_on": "equine receptor", "experiment": "Binding to equine C5a receptor", "design": "species or system horse"}, "[5]": {"tested_on": "circulating TNFα", "experiment": "Reverse passive dermal Arthus reaction in the rat: serum TNFα ELISA", "assay_type": "in vivo", "conditions": "intravenous, oral and topical pretreatment, FIG. 2", "protocol": "as §1, with “samples. Blood was allowed to spontaneously clot on ice, and serum samples were collected and stored at −20° C.” for “samples.”\nSerum TNFα concentrations were measured using an enzyme-linked immunosorbent assay (ELISA) kit (Strachan et al., 2000). […]"}, "[6]": {"tested_on": "allergic dermatitis", "experiment": "Treatment of allergic/atopic dermatitis in dogs", "assay_type": "in vivo, dog", "from_the_text": "Because of the intermittent nature of the lameness the owner, a veterinarian, found it difficult to assess any improvement.\nA very old dog (estimated age 13-16 years) admitted to a pound was diagnosed as having severe atopic dermatitis affecting 100% of the skin and the inside of the ear pinnae (otitis external, and keratoconjunctivitis sicca (“dry eye”). The dog had broken skin over the dorsum of the tail, and both eyes were encrusted with yellow exudate.\nThe sores on the tail resolved within 3 days."}, "[7]": {"tested_on": "demodectic dermatitis (Demodex canis infestation)", "experiment": "Treatment of flea allergy dermatitis and demodectic dermatitis in dogs", "assay_type": "in vivo, dog", "from_the_text": "Demodex, also known as demodectic mange or red mange, is an infestation of the skin caused by the mite Demodex canis which causes dermatitis, skin thickening and hair loss, and is very common in dogs. This condition is thought to be due partially to impaired immune responses in the host. It is often associated with flea infestation, which itself can cause an allergic dermatitis. The skin irritation in infected animals is sometimes very extensive, and results in loss of hairs and severe skin rashes. […] (b) A mastiff pup (approximately 6 months old) was diagnosed as having demodex infestation (folliculitis) of the head, involving both eyelids. […] The eyes were red and discharging, and the dog squinted because of the ocular pain. […] This was applied to the eyelid lesion so that the lesion was wet, and was also instilled into the eyes. […] This was considered to be a very significant clinical response."}, "[8]": {"conditions": "dog, in vivo, sc", "description": "as §2, §3"}, "[9]": {"tested_on": "dermal Arthus reaction", "experiment": "Reverse passive dermal Arthus reaction in the rat: vascular leakage (Evans blue)", "assay_type": "in vivo", "conditions": "intravenous, oral and topical pretreatment, FIG. 1", "protocol": "(1) by oral gavage (10 mg kg^−1 dissolved in 10% ethanol/90% saline solution to a final volume of 200 μl) or an appropriate oral vehicle control 30 min prior to deposition of antibody. Female Wistar rats (150-250 g) were anaesthetised with ketamine (80 mg kg^−1 i.p.) and xylazine (12 mg kg^−1 i.p.).\nas §1"}, "[10]": {"tested_on": "feline C5a receptor", "experiment": "Binding to feline C5a receptor", "design": "species or system cat"}, "[11]": {"conditions": "old dog, topical 5 mg/ml once a day"}, "[12]": {"conditions": "mastiff pup, topical 10 mg/ml daily, after 5 days"}}}
{"compound": "CC(C)(C)NCC(O)c1ccc(O)c(CO)c1", "note": "(centres unmarked) [Ventolin, albuterol, reference compound]", "values": [{"measurement": "response of respiratory clinical signs to bronchodilators", "setting": "[1]", "value": "responded rapidly"}]}
{"compound": "CC(C)(C)NCC(O)c1cc(O)cc(O)c1", "note": "(centres unmarked) [terbutaline, reference compound]", "values": [{"measurement": "response of respiratory clinical signs to bronchodilators", "setting": "[1]", "value": "responded rapidly"}]}
{"compound": "AcF-[OPdChaWR] [PMX53]", "values": [{"measurement": "signs of drug toxicity", "setting": "[2]", "value": "no signs of drug toxicity"}, {"measurement": "breathing and recovery time after episodes of dyspnoea", "setting": "[1]; 0.3 mg/kg single daily subcutaneous injections for six days", "value": "moderate to marked improvement"}, {"measurement": "general breathing pattern and recovery time", "setting": "[1]; 0.3 mg/kg subcutaneous twice-weekly injections", "value": "not as good during twice weekly treatments as it had been following daily injections, although recovery time was comparable"}, {"measurement": "playfulness, general activity level, appetite and general demeanour", "setting": "[1]; together with reduction in oral cortisone dosage", "value": "marked improvement"}, {"measurement": "pathology index associated with a dermal Arthus reaction", "setting": "[3]", "value": "reduction of the pathology index"}, {"measurement": "binding to the equine receptor", "setting": "[4]", "value": "binds less effectively"}, {"measurement": "rise in circulating TNFα associated with a dermal Arthus reaction", "setting": "[5]", "value": "inhibition of the rise in circulating TNFα"}, {"measurement": "allergic dermatitis", "setting": "[6]; kelpie dog, 1 mg/kg/day PO", "value": "marked improvement in the dog's allergic dermatitis, which had apparently resolved completely"}, {"measurement": "time to resolution of sores on the tail", "setting": "[6]; old dog, severe atopic dermatitis, topical 5 mg/ml in 50% propylene glycol:50% water once a day", "value": "≤ 3", "unit": "days"}, {"measurement": "gait", "setting": "[6]; old dog, after treatment, initially very stilted gait", "value": "able to walk and trot freely"}, {"measurement": "eyes (keratoconjunctivitis sicca)", "setting": "[6]; old dog, eye-drop formulation 5 mg/ml in 30% polyethylene glycol:70% normal saline", "value": "improved to the point of being essentially normal in appearance"}, {"measurement": "itching", "setting": "[6]; [11]", "value": "no signs of itching"}, {"measurement": "thickening of the skin over the stifle and ischial tuberosity", "setting": "[6]; [11]", "value": "resolved noticeably"}, {"measurement": "severe allergic dermatitis (presumed flea allergy)", "setting": "[6]; second dog, 0.3 mg/kg s.c. once daily, FIG. 4", "value": "completely resolved"}, {"measurement": "eyelid inflammation / trichiasis", "setting": "[7]; mastiff pup, eye drops 10 mg/ml once daily, over 5 days", "value": "inflammation resolved to the point that the trichiasis was relieved"}, {"measurement": "inflammation in the skin (head lesions)", "setting": "[7]; [12]", "value": "inflammation in the skin was reduced"}, {"measurement": "mites in scrapings taken from the lesion", "setting": "[7]; [12]", "value": "mites were still present"}, {"measurement": "inflammatory response in the skin", "setting": "[7]; two dogs with demodectic dermatitis, 0.3 mg/kg s.c. for 13 days", "value": "significant reduction in the inflammatory response in the skin"}, {"measurement": "irritation at the site of injection", "setting": "[8]", "value": "no evidence of irritation"}, {"measurement": "discomfort on injection", "setting": "[8]; 0.3 mg/kg", "value": "No discomfort was noted"}, {"measurement": "haematology and biochemistry abnormalities", "setting": "[8]; 0.3 mg/kg", "value": "No abnormalities were detected"}, {"measurement": "vascular leakage associated with a dermal Arthus reaction", "setting": "[9]", "value": "inhibition of the vascular leakage"}, {"measurement": "binding to the feline C5a receptor", "setting": "[10]", "value": "bind well"}]}
{"compound": "Prednisolone sodium succinate [reference compound]", "values": [{"measurement": "respiratory effort", "setting": "[1]; 1200 mg in 30 ml instilled into the trachea, within 24 hours", "value": "rapid and marked improvement in respiratory effort"}]}
